Test results: patent US20180148418A1, “AMIDO-SUBSTITUTED CYCLOHEXANE DERIVATIVES” (Bayer Pharma Aktiengesellschaft, priority 2015, published 2018)
pIC50: −log10 of the molar value.

Columns and labels:
TNKS2 = target: T1, TNKS2 (Homo sapiens, UniProt Q9H2K2); assay: TNKS2 Assay B (auto-parsylation, [3H]-NAD+ SPA); format: biochemical; details: 6 nM TNKS2, auto-parsylation, over night at room temperature
T1 construct: purchased BPS Bioscience, San Diego, USA 80572 (TNKS2 Histone Ribosylation Assay Kit)
T1 sequence (Q9H2K2 1-1166): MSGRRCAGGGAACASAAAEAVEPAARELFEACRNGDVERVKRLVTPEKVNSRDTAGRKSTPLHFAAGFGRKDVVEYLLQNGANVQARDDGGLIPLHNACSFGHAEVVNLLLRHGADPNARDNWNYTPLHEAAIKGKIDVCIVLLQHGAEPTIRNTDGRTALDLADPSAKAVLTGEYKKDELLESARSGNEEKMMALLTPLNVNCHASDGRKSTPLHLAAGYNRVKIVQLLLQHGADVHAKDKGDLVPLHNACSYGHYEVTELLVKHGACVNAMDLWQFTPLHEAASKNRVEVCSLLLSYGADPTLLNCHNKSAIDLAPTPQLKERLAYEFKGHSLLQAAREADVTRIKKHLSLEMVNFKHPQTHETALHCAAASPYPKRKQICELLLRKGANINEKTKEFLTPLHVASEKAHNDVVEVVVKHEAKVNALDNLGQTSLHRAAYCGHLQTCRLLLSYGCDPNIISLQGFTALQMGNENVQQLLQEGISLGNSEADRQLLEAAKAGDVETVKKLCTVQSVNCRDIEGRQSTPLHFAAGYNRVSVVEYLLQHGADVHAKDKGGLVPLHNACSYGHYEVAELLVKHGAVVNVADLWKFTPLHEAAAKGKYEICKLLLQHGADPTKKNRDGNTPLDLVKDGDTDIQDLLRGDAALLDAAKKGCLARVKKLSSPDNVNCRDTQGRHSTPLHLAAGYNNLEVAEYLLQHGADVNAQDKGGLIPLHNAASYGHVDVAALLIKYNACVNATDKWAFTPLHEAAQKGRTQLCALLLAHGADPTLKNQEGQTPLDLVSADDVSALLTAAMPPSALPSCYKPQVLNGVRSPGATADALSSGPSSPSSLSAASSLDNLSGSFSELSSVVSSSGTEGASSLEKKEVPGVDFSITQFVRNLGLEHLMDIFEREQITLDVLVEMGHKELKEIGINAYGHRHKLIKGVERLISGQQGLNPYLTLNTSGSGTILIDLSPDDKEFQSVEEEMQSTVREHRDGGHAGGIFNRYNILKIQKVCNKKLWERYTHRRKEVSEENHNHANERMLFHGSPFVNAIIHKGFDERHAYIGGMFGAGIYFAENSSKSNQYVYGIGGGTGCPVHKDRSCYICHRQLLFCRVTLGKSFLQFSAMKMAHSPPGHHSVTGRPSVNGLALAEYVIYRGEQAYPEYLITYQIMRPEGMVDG

[1] = tested on: wildtype Wnt signaling cascade; assay: HEK293 TOP assay (Super TopFlash luciferase reporter, Wnt-3a stimulated); format: cell-based; details: Homo sapiens, HEK293, 16 h, HEK293 TOP reporter cells, Wnt3a at EC50, 16 hours
Outline: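 HEK293 cells stably carrying Super TopFlash (TOP) run in parallel with FOP cells, 10000/well plated 24 h ahead, stimulated with recombinant human Wnt-3a. Compounds tested 50 μM to 15 nM in 3.16-fold steps in CAFTY buffer pH 7.4 with 2 mM Ca^2+ and 0.01% BSA; luciferase read-out.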

[2] = tested on: HEK293 cells cotransfected with the FOP control vector; assay: HEK293 FOP assay (control reporter with non-functional TCF elements); format: cell-based; details: Homo sapiens, 16 hours
Outline: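 Stable HEK293 line carrying FOP control reporter (randomized non-functional TCF sites, with pcDNA3), Geneticin-selected, plated 24 h before assay. Stimulated with recombinant human Wnt-3a (2500-5 ng/ml) and compounds 50 μM–15 nM (3.16-fold steps) in CAFTY buffer pH 7.4 with 2 mM Ca2+, 0.01% BSA, run parallel to TOP line.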

Structure (SMILES) | pIC50 (TNKS2) | pIC50 [1] | pIC50 [2]
COCc1cc(C)n2ncc(C(=O)N[C@H]3CC[C@]4(CCN(c5ccc(F)cc5Cl)C4=O)CC3)c2n1 [Example 337, N-[(cis)-2-(2-chloro-4-fluorophenyl)-1-oxo-2-azaspiro[4.5]dec-8-yl]-5-(methoxymethyl)-7-methylpyrazolo[1,5-a]pyrimidine-3-carboxamide] | < 5.00 | 5.96 | ≤ 4.30
O=C(NC1CC1)c1nc[nH]c1C(=O)N[C@H]1CC[C@]2(CCN(c3ccc(F)cc3Cl)C2=O)CC1 [Example 338, N^5-[(cis)-2-(2-chloro-4-fluorophenyl)-1-oxo-2-azaspiro[4.5]dec-8-yl]-N^4-cyclopropyl-1H-imidazole-4,5-dicarboxamide] | < 5.00 | 5.72 | 4.74
CCNC(=O)c1nc[nH]c1C(=O)N[C@H]1CC[C@]2(CCN(c3ccc(F)cc3Cl)C2=O)CC1 [Example 339, N^5-[(cis)-2-(2-chloro-4-fluorophenyl)-1-oxo-2-azaspiro[4.5]dec-8-yl]-N^4-ethyl-1H-imidazole-4,5-dicarboxamide] | < 5.00 | 5.51 | ≤ 4.30
O=C(N[C@H]1CC[C@]2(CCN(c3ccc(F)cc3Cl)C2=O)CC1)c1[nH]cnc1C(=O)N1CC(F)C1 [Example 340, N-[(cis)-2-(2-chloro-4-fluorophenyl)-1-oxo-2-azaspiro[4.5]dec-8-yl]-4-[(3-fluoroazetidin-1-yl)carbonyl]-1H-imidazole-5-carboxamide] | 6.07 | 7.11 | 4.60
COCCNC(=O)c1nc[nH]c1C(=O)N[C@H]1CC[C@]2(CCN(c3ccc(F)cc3Cl)C2=O)CC1 [Example 341, N^5-[(cis)-2-(2-chloro-4-fluorophenyl)-1-oxo-2-azaspiro[4.5]dec-8-yl]-N^4-(2-methoxyethyl)-1H-imidazole-4,5-dicarboxamide] | < 5.00 | 5.54 | ≤ 4.30
NC(=O)c1nc[nH]c1C(=O)N[C@H]1CC[C@]2(CCN(c3ccc(F)cc3Cl)C2=O)CC1 [Example 342, N^5-[(cis)-2-(2-chloro-4-fluorophenyl)-1-oxo-2-azaspiro[4.5]dec-8-yl]-1H-imidazole-4,5-dicarboxamide] | 5.89 | 6.08 | 4.46
Cn1cc(C(=O)N[C@H]2CC[C@@]3(CCN(c4ccc(F)cc4Cl)C3=O)CC2)c2ncccc21 [Example 343, N-[(trans)-2-(2-chloro-4-fluorophenyl)-1-oxo-2-azaspiro[4.5]dec-8-yl]-1-methyl-1H-pyrrolo[3,2-b]pyridine-3-carboxamide] | 7.80 | 8.64 | 4.62
O=C(N[C@H]1CC[C@@]2(CCN(c3ccc(F)cc3Cl)C2=O)CC1)c1cn(CCO)c2cccnc12 [Example 344, N-[(trans)-2-(2-chloro-4-fluorophenyl)-1-oxo-2-azaspiro[4.5]dec-8-yl]-1-(2-hydroxyethyl)-1H-pyrrolo[3,2-b]pyridine-3-carboxamide] | 7.68 | 8.40 | ≤ 4.30
COCCn1cc(C(=O)N[C@H]2CC[C@@]3(CCN(c4ccc(F)cc4Cl)C3=O)CC2)c2ncccc21 [Example 345, N-[(trans)-2-(2-chloro-4-fluorophenyl)-1-oxo-2-azaspiro[4.5]dec-8-yl]-1-(2-methoxyethyl)-1H-pyrrolo[3,2-b]pyridine-3-carboxamide] | 7.36 | 7.77 | 5.09
O=C(N[C@H]1CC[C@@]2(CCN(c3ccccn3)C2=O)CC1)c1cnn2cccnc12 [Example 346, N-[(trans)-1-oxo-2-(pyridin-2-yl)-2-azaspiro[4.5]dec-8-yl]pyrazolo[1,5-a]pyrimidine-3-carboxamide] | 6.28 | 7.23 | ≤ 4.30
O=C(N[C@H]1CC[C@@]2(CCN(c3ccc(F)cc3Cl)C2=O)CC1)c1nnc2cccnn12 [Example 347, N-[(trans)-2-(2-chloro-4-fluorophenyl)-1-oxo-2-azaspiro[4.5]dec-8-yl][1,2,4]triazolo[4,3-b]pyridazine-3-carboxamide] | 5.40 | 5.62 | ≤ 4.30
CCc1cc(CC)n2ncc(C(=O)N[C@H]3CC[C@@]4(CCN(c5ccc(F)cc5Cl)C4=O)CC3)c2n1 [Example 348, N-[(trans)-2-(2-chloro-4-fluorophenyl)-1-oxo-2-azaspiro[4.5]dec-8-yl]-5,7-diethyl pyrazolo[1,5-a]pyrimidine-3-carboxamide] | 8.04 | 8.74 | ≤ 4.30
O=C(N[C@H]1CC[C@@]2(CCN(c3ccc(F)cc3Cl)C2=O)CC1)c1cnc2c(NCCC(F)(F)F)cc(Cl)nn12 [Example 349, 6-chloro-N-[(trans)-2-(2-chloro-4-fluorophenyl)-1-oxo-2-azaspiro[4.5]dec-8-yl]-8-[(3,3,3-trifluoropropyl)amino]imidazo[1,2-b]pyridazine-3-carboxamide] | 7.37 | 7.85 | ≤ 4.30
O=C(N[C@H]1CC[C@@]2(CCN(c3ccc(F)cc3Cl)C2=O)CC1)c1c[nH]c2nccnc12 [Example 350, N-[(trans)-2-(2-chloro-4-fluorophenyl)-1-oxo-2-azaspiro[4.5]dec-8-yl]-5H-pyrrolo[2,3-b]pyrazine-7-carboxamide] | 7.70 | 8.92 | ≤ 4.30
COc1ccc(Cl)c(N2CC[C@]3(CC[C@@H](NC(=O)c4cnn5cccnc45)CC3)C2=O)c1 [Example 353, N-[(trans)-2-(2-chloro-5-methoxyphenyl)-1-oxo-2-azaspiro[4.5]dec-8-yl]pyrazolo[1,5-a]pyrimidine-3-carboxamide] | 7.57 | 8.14 | 4.55
O=C(N[C@H]1CC[C@@]2(CCN(c3ccc(OC(F)(F)F)cc3Cl)C2=O)CC1)c1cnn2cccnc12 [Example 354, N-{(trans)-2-[2-chloro-4-(trifluoromethoxy)phenyl]-1-oxo-2-azaspiro[4.5]dec-8-yl}pyrazolo[1,5-a]pyrimidine-3-carboxamide] | 7.59 | 7.82 | 4.72
O=C(N[C@H]1CC[C@@]2(CCN(c3cccs3)C2=O)CC1)c1cnn2cccnc12 [Example 361, N-[(trans)-1-oxo-2-(thiophen-2-yl)-2-azaspiro[4.5]dec-8-yl]pyrazolo[1,5-a]pyrimidine-3-carboxamide] | 5.41 | 6.25 | ≤ 4.30
COC(=O)c1ccc(N2CC[C@]3(CC[C@@H](NC(=O)c4cnn5cccnc45)CC3)C2=O)c(Cl)c1 [Example 362, methyl 3-chloro-4-{(trans)-1-oxo-8-[(pyrazolo[1,5-a]pyrimidin-3-ylcarbonyl)amino]-2-azaspiro[4.5]dec-2-yl}benzoate] | 7.48 | 8.41 | 4.51
